Measurements published in ChEMBL document CHEMBL3885881, “DrugMatrix”.

Species on record: Rattus norvegicus
Test: DrugMatrix - Regimen: Daily Repeat
Assay type: toxicity, organism-based, Sprague-Dawley
Design: regimen Daily Repeat, gender Male, age 6-8 weeks
Details: in vivo, po, route oral GAVAGE, […]; for ABSOLUTE BASOPHIL / ABSOLUTE EOSINOPHIL / ABSOLUTE LYMPHOCYTE / ABSOLUTE MONOCYTE / ABSOLUTE SEGMENTED NEUTROPHIL / BASOPHIL / EOSINOPHIL / ERYTHROCYTE COUNT / HEMATOCRIT / HEMOGLOBIN / LEUKOCYTE COUNT / LYMPHOCYTE / MEAN CORPUSCULAR HEMOGLOBIN / MEAN CORPUSCULAR HEMOGLOBIN CONCENTRATION / MEAN CORPUSCULAR VOLUME / MONOCYTE / NEUTROPHIL / NUCLEATED RED BLOOD CELLS / PLATELET COUNT: tissue Blood; for ALANINE AMINOTRANSFERASE / ALBUMIN / ALKALINE PHOSPHATASE / ASPARTATE AMINOTRANSFERASE / BLOOD UREA NITROGEN / CARBON DIOXIDE / CHLORIDE / CHOLESTEROL / CREATINE PHOSPHOKINASE / CREATININE / GLUCOSE / LACTATE DEHYDROGENASE / LIPASE / PHOSPHORUS / POTASSIUM / SODIUM / TOTAL BILIRUBIN / TOTAL PROTEIN / URIC ACID: tissue Plasma
[1] = 0 mg/kg, 72 h, dose level Control, time 3 day
[2] = 0 mg/kg, 120 h, dose level Control, time 5 day
[3] = 20 mg/kg, 72 h, dose level Low, time 3 day
[4] = 20 mg/kg, 120 h, dose level Low, time 5 day

SMILES: O=c1c(-c2ccc(O)cc2)coc2cc(O)cc(O)c12 [GENISTEIN]
- ABSOLUTE BASOPHIL [1]: 0 CELLS/uL
- ABSOLUTE EOSINOPHIL [1]: 14 CELLS/uL
- ABSOLUTE LYMPHOCYTE [1]: 11144.67 CELLS/uL
- ABSOLUTE MONOCYTE [1]: 22.5 CELLS/uL
- ABSOLUTE SEGMENTED NEUTROPHIL [1]: 535.5 CELLS/uL
- BASOPHIL [1]: 0%
- EOSINOPHIL [1]: 0.17%
- ERYTHROCYTE COUNT [1]: 5.08 x10E6/uL
- HEMATOCRIT [1]: 32.32%
- HEMOGLOBIN [1]: 12.87 G/DL
- LEUKOCYTE COUNT [1]: 11.72 x10E3/uL
- LYMPHOCYTE [1]: 94.67%
- MEAN CORPUSCULAR HEMOGLOBIN [1]: 25.37 pg
- MEAN CORPUSCULAR HEMOGLOBIN CONCENTRATION [1]: 39.85 G/DL
- MEAN CORPUSCULAR VOLUME [1]: 63.58 fL
- MONOCYTE [1]: 0.17%
- NEUTROPHIL [1]: 5%
- NUCLEATED RED BLOOD CELLS [1]: 0 /100WBC
- PLATELET COUNT [1]: 1084 x10E3/uL
- ALANINE AMINOTRANSFERASE [1]: 67.5 u/L
- ALBUMIN [1]: 4.02 G/DL
- ALKALINE PHOSPHATASE [1]: 374.17 u/L
- ASPARTATE AMINOTRANSFERASE [1]: 83.5 u/L
- BLOOD UREA NITROGEN [1]: 14.5 mg/dL
- CARBON DIOXIDE [1]: 30 mmol/L
- CHLORIDE [1]: 100.5 MEQ/L
- CHOLESTEROL [1]: 71.33 mg/dL
- CREATINE PHOSPHOKINASE [1]: 268.33 u/L
- CREATININE [1]: 0.16 mg/dL
- GLUCOSE [1]: 170.5 mg/dL
- LACTATE DEHYDROGENASE [1]: 81.17 u/L
- LIPASE [1]: 16.67 u/L
- PHOSPHORUS [1]: 10.07 mg/dL
- POTASSIUM [1]: 5.03 MEQ/L
- SODIUM [1]: 142.92 MEQ/L
- TOTAL BILIRUBIN [1]: 0.17 mg/dL
- TOTAL PROTEIN [1]: 5.63 G/DL
- URIC ACID [1]: 0.5 mg/dL
- ABSOLUTE BASOPHIL [2]: 0 CELLS/uL
- ABSOLUTE EOSINOPHIL [2]: 37.5 CELLS/uL
- ABSOLUTE LYMPHOCYTE [2]: 8049.5 CELLS/uL
- ABSOLUTE MONOCYTE [2]: 82.83 CELLS/uL
- ABSOLUTE SEGMENTED NEUTROPHIL [2]: 646.83 CELLS/uL
- BASOPHIL [2]: 0%
- EOSINOPHIL [2]: 0.5%
- ERYTHROCYTE COUNT [2]: 5.36 x10E6/uL
- HEMATOCRIT [2]: 33.9%
- HEMOGLOBIN [2]: 13.02 G/DL
- LEUKOCYTE COUNT [2]: 8.82 x10E3/uL
- LYMPHOCYTE [2]: 90.17%
- MEAN CORPUSCULAR HEMOGLOBIN [2]: 24.32 pg
- MEAN CORPUSCULAR HEMOGLOBIN CONCENTRATION [2]: 38.42 G/DL
- MEAN CORPUSCULAR VOLUME [2]: 63.32 fL
- MONOCYTE [2]: 1.17%
- NEUTROPHIL [2]: 8.17%
- NUCLEATED RED BLOOD CELLS [2]: 0.17 /100WBC
- PLATELET COUNT [2]: 1231.5 x10E3/uL
- ALANINE AMINOTRANSFERASE [2]: 62 u/L
- ALBUMIN [2]: 3.97 G/DL
- ALKALINE PHOSPHATASE [2]: 303.67 u/L
- ASPARTATE AMINOTRANSFERASE [2]: 84.5 u/L
- BLOOD UREA NITROGEN [2]: 14.83 mg/dL
- CARBON DIOXIDE [2]: 31.83 mmol/L
- CHLORIDE [2]: 97 MEQ/L
- CHOLESTEROL [2]: 68.83 mg/dL
- CREATINE PHOSPHOKINASE [2]: 411.33 u/L
- CREATININE [2]: 0.16 mg/dL
- GLUCOSE [2]: 170.17 mg/dL
- LACTATE DEHYDROGENASE [2]: 88.5 u/L
- LIPASE [2]: 9.5 u/L
- PHOSPHORUS [2]: 9.98 mg/dL
- POTASSIUM [2]: 5.72 MEQ/L
- SODIUM [2]: 141.62 MEQ/L
- TOTAL BILIRUBIN [2]: 0.1 mg/dL
- TOTAL PROTEIN [2]: 5.67 G/DL
- URIC ACID [2]: 0.52 mg/dL
- ABSOLUTE BASOPHIL [3]: 0 CELLS/uL
- ABSOLUTE EOSINOPHIL [3]: 0 CELLS/uL
- ABSOLUTE LYMPHOCYTE [3]: 8352.33 CELLS/uL
- ABSOLUTE MONOCYTE [3]: 117.33 CELLS/uL
- ABSOLUTE SEGMENTED NEUTROPHIL [3]: 697 CELLS/uL
- BASOPHIL [3]: 0%
- EOSINOPHIL [3]: 0%
- ERYTHROCYTE COUNT [3]: 4.71 x10E6/uL
- HEMATOCRIT [3]: 30.2%
- HEMOGLOBIN [3]: 12.1 G/DL
- LEUKOCYTE COUNT [3]: 9.17 x10E3/uL
- LYMPHOCYTE [3]: 91%
- MEAN CORPUSCULAR HEMOGLOBIN [3]: 25.73 pg
- MEAN CORPUSCULAR HEMOGLOBIN CONCENTRATION [3]: 40.07 G/DL
- MEAN CORPUSCULAR VOLUME [3]: 64.27 fL
- MONOCYTE [3]: 1.33%
- NEUTROPHIL [3]: 7.67%
- NUCLEATED RED BLOOD CELLS [3]: 0 /100WBC
- PLATELET COUNT [3]: 970.67 x10E3/uL
- ALANINE AMINOTRANSFERASE [3]: 69.33 u/L
- ALBUMIN [3]: 3.73 G/DL
- ALKALINE PHOSPHATASE [3]: 415.33 u/L
- ASPARTATE AMINOTRANSFERASE [3]: 87 u/L
- BLOOD UREA NITROGEN [3]: 14 mg/dL
- CARBON DIOXIDE [3]: 31.33 mmol/L
- CHLORIDE [3]: 101.33 MEQ/L
- CHOLESTEROL [3]: 55.33 mg/dL
- CREATINE PHOSPHOKINASE [3]: 256 u/L
- CREATININE [3]: 0.16 mg/dL
- GLUCOSE [3]: 157.33 mg/dL
- LACTATE DEHYDROGENASE [3]: 72 u/L
- LIPASE [3]: 10.33 u/L
- PHOSPHORUS [3]: 9.33 mg/dL
- POTASSIUM [3]: 5.54 MEQ/L
- SODIUM [3]: 144.67 MEQ/L
- TOTAL BILIRUBIN [3]: 0.2 mg/dL
- TOTAL PROTEIN [3]: 5.43 G/DL
- URIC ACID [3]: 0.37 mg/dL
- ABSOLUTE BASOPHIL [4]: 0 CELLS/uL
- ABSOLUTE EOSINOPHIL [4]: 0 CELLS/uL
- ABSOLUTE LYMPHOCYTE [4]: 8287 CELLS/uL
- ABSOLUTE MONOCYTE [4]: 65 CELLS/uL
- ABSOLUTE SEGMENTED NEUTROPHIL [4]: 1548 CELLS/uL
- BASOPHIL [4]: 0%
- EOSINOPHIL [4]: 0%
- ERYTHROCYTE COUNT [4]: 4.93 x10E6/uL
- HEMATOCRIT [4]: 31.57%
- HEMOGLOBIN [4]: 12.13 G/DL
- LEUKOCYTE COUNT [4]: 9.9 x10E3/uL
- LYMPHOCYTE [4]: 84%
- MEAN CORPUSCULAR HEMOGLOBIN [4]: 24.67 pg
- MEAN CORPUSCULAR HEMOGLOBIN CONCENTRATION [4]: 38.43 G/DL
- MEAN CORPUSCULAR VOLUME [4]: 64.13 fL
- MONOCYTE [4]: 1%
- NEUTROPHIL [4]: 15%
- NUCLEATED RED BLOOD CELLS [4]: 0.33 /100WBC
- PLATELET COUNT [4]: 1213.67 x10E3/uL
- ALANINE AMINOTRANSFERASE [4]: 61.33 u/L
- ALBUMIN [4]: 3.83 G/DL
- ALKALINE PHOSPHATASE [4]: 296.67 u/L
- ASPARTATE AMINOTRANSFERASE [4]: 87.33 u/L
- BLOOD UREA NITROGEN [4]: 17 mg/dL
- CARBON DIOXIDE [4]: 33 mmol/L
- CHLORIDE [4]: 98.5 MEQ/L
- CHOLESTEROL [4]: 69.67 mg/dL
- CREATINE PHOSPHOKINASE [4]: 277.33 u/L
- CREATININE [4]: 0.12 mg/dL
- GLUCOSE [4]: 143.33 mg/dL
- LACTATE DEHYDROGENASE [4]: 87.67 u/L
- LIPASE [4]: 11.67 u/L
- PHOSPHORUS [4]: 10.4 mg/dL
- POTASSIUM [4]: 5.69 MEQ/L
- SODIUM [4]: 143.35 MEQ/L
- TOTAL BILIRUBIN [4]: 0.0667 mg/dL
- TOTAL PROTEIN [4]: 5.57 G/DL
- URIC ACID [4]: 0.43 mg/dL
